Values of other authors as cited in US20060105962A1, “TONIC TO MAINTAIN INTESTINAL FLORA” (priority 2004, published 2006).

System: rats
Conditions: exposure over a thirteen week period, up to 100% safety

SMILES: O=Cc1ccco1 [furfural compounds, furfural]
- exposure to furfural compounds demonstrated as up to 100% safe: 53.0 mg/kg body weight
